Assay results as given in US11246813B2, “Composition for preventing hair loss or promoting hair development, comprising irone as active ingredient” (INDUSTRY-ACADEMIC COOPERATION FOUNDATION, YONSEI UNIVERSITY, priority 2017, dated 2022).

How the values were obtained:
Type in all cases: cell-based
IGF = assay: RT-PCR of IGF-1 mRNA in human hair dermal papilla cells; conditions: 20 μM, 24 hours
Description: (§1) In the present invention, in order to identify activity of alpha-irone on human hair dermal papilla cells (DPCs), when the DPCs reached 70% to 80% confluency, treatment with alpha-irone at 20 μM was performed, and then culture was performed under a condition of 5% CO2 and 37° C. 24 hours after the treatment, the cells were collected and total RNA was extracted with Trizol Reagent (Gibco BRL, USA). The total RNA was quantified by absorbance measurement at 260 nm.
(§2) After isolation of RNA, cDNA was synthesized by performing reverse transcription using oligo dT primers and SuperScript reverse transcriptase (GIBCOBRL, Gaithersburg, Md., USA). PCR was performed using, as a template, cDNA obtained through reverse transcription and using, as primers, 5′ and 3′ flanking sequences of the gene's cDNA to be amplified. Here, required primers were obtained by making a request for synthesis with a company specializing in primer manufacturing (BIONEER CORPORATION, Korea) and used. To a mixture obtained by mixing of 5 μl of 10× reaction buffer [100 mM KCL, 20 mM Tris-HCl (pH 8.0), 2.5 mM MgCl2], 4 μl of 10 mM dNTP, and 1 μl each of 0.2 μM sense and antisense primers, were added 2 μl of the completed cDNA reaction mixture and 2.5 unit of Taq polymerase (Takara, Japan). Then, the volume was adjusted with 50 μl of distilled water, and PCR was performed using a PCR instrument. […]

PKA Cα = assay: Western blot of PKA Cα in human hair dermal papilla cells; conditions: 20 μM
Description: (§3) The […] of human hair dermal papilla cells, obtained by performing treatment with alpha-irone at 20 μM and performing culture, was homogenized with a lysis buffer, and then centrifuged at 13,000×g for 20 minutes at 4° C. Protein quantification was performed by Bradford assay. 40 μg of the protein was electrophoresed on 10% SDS polyacrylamide gel and then transferred to nitrocellulose membranes. The protein was allowed to react with each of PKA Cα, β-catenin, β-actin, and GAPDH antibody (Cell Signaling Technology, Danvers, Mass., USA). Each protein's signal was visualized with a chemiluminescent detection system (Amersham), and then the band's thickness was quantified using the Quantity One Analysis Software (Bio-Rad Laboratories).

β-catenin = assay: Western blot of β-catenin in human hair dermal papilla cells; conditions: 20 μM
Description: as §3

IGF-1 = IGF-1 ELISA of culture solution of human hair dermal papilla cells; conditions: 20 μM, 24 hours, vs DMSO
Description: (§4) Human hair dermal papilla cells were purchased from PromoCell GmbH (Heidelberg, Germany). The human hair dermal papilla cells were cultured in an incubator at 37° C., 5% CO2 using HFDPC medium (PromoCell, Germany) with fetal bovine serum (FBS) and Dulbecco's modified Eagle's medium (DMEM; Gibco BRL, Gaithersburg, Md., USA). Due to the nature of the cells, cells at passages 2 to 5 were used for all experiments. The human hair dermal papilla cells were dispensed into 12-well plates to 3×10^4 cells/well, and then the culture solutions were treated with alpha-irone at 20 μM. DMSO was used as a negative control group. The alpha-irone-treated culture solutions were collected after 24 hours, and experiments were conducted using human VEGF ELISA Kit (Enzo Life Sciences, NY, USA), human IGF-1 ELISA kit (Enzo Life Sciences, NY, USA), and cAMP complete ELISA kit (Enzo Life Sciences, NY, USA), respectively, according to the manufacturers' protocol.

LEF = assay: RT-PCR of LEF mRNA in human hair dermal papilla cells; conditions: 20 μM, 24 hours
Description: as §1, §2

cAMP = cAMP ELISA in human hair dermal papilla cells; conditions: 20 μM, 24 hours, vs DMSO
Description: as §4

[1] = system: human hair dermal papilla cells; assay: MTT assay, cell viability and proliferation in human hair dermal papilla cells
Description: Human hair dermal papilla cells were purchased from PromoCell GmbH (Heidelberg, Germany). The human hair dermal papilla cells were cultured in an incubator at 37° C., 5% CO2 using HFDPC medium (PromoCell, Germany) with fetal bovine serum (FBS) and Dulbecco's modified Eagle's medium (DMEM; Gibco BRL, Gaithersburg, Md., USA). Due to the nature of the cells, cells at passages 2 to 5 were used for all experiments. The human hair dermal papilla cells were dispensed into 24-well plates to 1×10^5 cells/well, and then cultured for 24 hours in an incubator at 37° C., 5% CO2 so that the cells are stabilized. Treatment with samples at respective concentrations (0, 10, 20, 50, 100, 200, 400 μg/ml) was performed and culture was performed for 24 hours. Then, treatment with 100 ul of 3-(4,5-dimethylthiazol-2-yl)-2,5-diphenyltetrazolium bromide (MTT; Sigma Aldrich, St. Louis, USA) reagent at a concentration of […] was performed and culture was performed again for 4 hours. After removing the medium, the precipitate (formazan) was dissolved in DMSO and the absorbance was measured at a wavelength of 540 nm. A proliferation rate thereof was evaluated based on the absorbance of a control group containing only DMSO.

VEGF [2] = assay: VEGF ELISA of culture solution of human hair dermal papilla cells; conditions: 20 μM, 24 hours, vs DMSO
Description: as §4

VEGF [3] = assay: RT-PCR of VEGF mRNA in human hair dermal papilla cells; conditions: 20 μM, 24 hours
Description: as §1, §2

Cyc-D = assay: RT-PCR of Cyc-D mRNA in human hair dermal papilla cells; conditions: 20 μM, 24 hours
Description: as §1, §2

CC(=O)/C=C/C1C(C)=CCC(C)C1(C)C (stereo not drawn) [alpha-irone, (E)-4-(2,5,6,6-tetramethylcyclohex-2-en-1-yl)but-3-en-2-one]
increase in mRNA expression of IGF (IGF): 217% | increase in expression of PKA Cα protein (PKA Cα): 52% | increase in expression of β-catenin protein in the cell nucleus (β-catenin): 38% | increase in concentration of IGF-1 (IGF-1): 18% | increase in mRNA expression of LEF (LEF): 348% | increase in cAMP concentration (cAMP): 51% | cell viability (MTT assay) ([1]; 24 hours culture, up to a concentration of 400 μg/ml, vs DMSO control): did not affect the cell viability | increase of proliferation rate ([1]; alpha-irone 10 μM): 10.6% | increase of proliferation rate ([1]; alpha-irone 20 μM): 37% | increase of proliferation rate ([1]; alpha-irone 50 μM): 28% | increase in concentration of VEGF (VEGF [2]): 27% | increase in mRNA expression of VEGF (VEGF [3]): 247% | increase in mRNA expression of Cyc-D (Cyc-D): 250%
